# Assay results taken from patent US20240217968A1, “PHARMACEUTICAL COMPOUND” (DUKE STREET BIO LIMITED, priority 2021, published 2024).
# Target: T1, recombinant human Flag-tagged PARP7 (amino acids 456-657) (Homo sapiens, UniProt Q7Z3E1)
# T1 construct: recombinant human Flag-tagged PARP7 (amino acids 456-657)
# T1 sequence (Q7Z3E1 456-657): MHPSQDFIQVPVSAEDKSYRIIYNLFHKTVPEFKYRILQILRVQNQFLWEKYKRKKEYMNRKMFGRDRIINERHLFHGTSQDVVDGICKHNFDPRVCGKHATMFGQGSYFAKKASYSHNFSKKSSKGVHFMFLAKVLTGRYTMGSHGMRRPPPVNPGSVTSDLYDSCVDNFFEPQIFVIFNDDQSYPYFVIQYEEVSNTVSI
# Assay: PARP7 biochemical DELFIA assay (auto-MARylation)
# Conditions: DELFIA readout, IC50 class
# Procedure: A suitable assay may be conducted using 10-30 nM PARP7 (amino acids 456-657), 2 μM biotin-NAD assay solution in 20 mM HEPES (pH 7.5), 100 mM NaCl, 2 mM DTT, 0.1% BSA (w/v), 0.02% Tween (v/v) assay buffer. MARylation may take place for 2-3 h at room temperature and may be detected using a dissociation-enhanced lanthanide fluorescence immunoassay (DELFIA) readout. This assay format has been recently utilised for screening for modulators of PARP7 and other MonoPARP enzymes ([…]. et al. Forced Self-Modification Assays as a Strategy to Screen MonoPARP Enzymes. SLAS Discovery. 25; 241-252, (2020)). A particularly suitable assay is described in the Examples below. Optiplate HB 384-well plates were coated with anti-FLAG antibody, supplied as a 4 mg/ml solution, using a Na2CO3/HCO3 coating buffer at pH 9.6, overnight at 4° C., in order to achieve a final immobilisation per well of 0.3 μg. Wells were then washed 3× in coating wash buffer (PBS/0.05% Tween (v/v)), blocked with 2% BSA (w/v) in coating wash buffer and washed 3 further times prior to assay. For the assay 20 μl of 12.5-37.5 nM recombinant human Flag-tagged PARP7 (amino acids 456-657) was added to each well of the 384-well plate for 30 min at room temperature. 50 nl of test compound in DMSO was added using pintool technology and plates were incubated for a further 30 min at room temperature. 5 μl of 15 μM biotin-NAD^+ assay solution in 20 mM HEPES (pH 7.5), 100 mM NaCl, 2 mM DTT, 0.1% BSA (w/v), 0.02% Tween (v/v) assay buffer was then added and MARylation proceeded for 2-3 h at room temperature prior to the addition of 5 μl of 12 mM NAD^+ quenching solution. After 30 min at room temperature, assay solution was removed and following washing 5 times, 100 μl of a 1:1000 dilution of DELFIA Eu-N1 Streptavidin reagent was added. Plates were then incubated for 30 min at room temperature. Reaction mixture was removed and plates washed 5 times prior to the addition of 25 μl DELFIA enhancement solution. Following incubation for 30 min at room temperature, fluorescence was read on either an Envision or Pherastar FS (Ex337 nm, Em620 nm).
row,Compound,IC50
1,"CC1CN(c2ncc(C(F)(F)F)cn2)CCN1C(=O)CCOCCn1cc(C(F)(F)F)c2c(=O)[nH]ncc21 (single isomer, unassigned) [Compound 371]",≤ 0.1 µM
2,"CC(COCCC(=O)N1CCN(c2ccc(Cl)cn2)CC1)n1cc(C(F)(F)F)c2c(=O)[nH]ncc21 (single isomer, unassigned) [Compound 375]",≤ 0.1 µM
3,"CC(COCCC(=O)N1CCN(c2ncc(OC(F)(F)F)cn2)CC1)n1nc(C(F)(F)F)c2c(=O)[nH]ncc21 (single isomer, unassigned) [Compound 387]",≤ 0.1 µM
4,"CC(COCCC(=O)N1CCN(c2nnc(C(F)(F)F)[nH]2)CC1)n1nc(C(F)(F)F)c2c(=O)[nH]ncc21 (single isomer, unassigned) [Compound 393]",≤ 0.1 µM
5,"CC(COCCC(=O)N1CCN(c2ncc(C(F)(F)F)cn2)CC1)n1cc(C(F)F)c2c(=O)[nH]ncc21 (single isomer, unassigned) [Compound 395, 3-(difluoromethyl)-1-(1-(3-oxo-3-(4-(5-(trifluoromethyl)pyrimidin-2-yl)piperazin-1-yl)propoxy)propan-2-yl)-1,5-dihydro-4H-pyrrolo[2,3-d]pyridazin-4-one]",≤ 0.1 µM
6,"CC(COCCC(=O)N1CCN(c2ncc(C(F)(F)F)cn2)CC1)n1cc(C(F)F)c2c(=O)[nH]ncc21 (single isomer, unassigned) [Compound 396, 3-(difluoromethyl)-1-(1-(3-oxo-3-(4-(5-(trifluoromethyl)pyrimidin-2-yl)piperazin-1-yl)propoxy)propan-2-yl)-1,5-dihydro-4H-pyrrolo[2,3-d]pyridazin-4-one]",≤ 0.1 µM
7,"CC(COCCC(=O)N1CCN(c2ncccc2C#N)CC1)n1nc(C(F)(F)F)c2c(=O)[nH]ncc21 (single isomer, unassigned) [Compound 405]",0.1 to 1 µM
8,"CC(COCCC(=O)N1CCN(c2ncccc2C#N)CC1)n1nc(C(F)(F)F)c2c(=O)[nH]ncc21 (single isomer, unassigned) [Compound 406]",≤ 0.1 µM
9,"CC(COCCn1cc(C(F)(F)F)c2c(=O)[nH]ncc21)C(=O)N1CCN(c2ncc(C(F)(F)F)cn2)CC1 (single isomer, unassigned) [Compound 411]",≤ 0.1 µM
10,"CC(COCCC(=O)N1CCN(c2ncc(C#N)cn2)CC1)c1ccc(Cl)c2c(=O)[nH]ncc12 (single isomer, unassigned) [Compound 414]",0.1 to 1 µM
11,"CC(COCCC(=O)N1CCN(c2ccc(C#N)cn2)CC1)c1ccc(Cl)c2c(=O)[nH]ncc12 (single isomer, unassigned) [Compound 416]",≤ 0.1 µM
12,"CC(COCCC(=O)N1CCN(c2cc(F)c(F)cn2)CC1)n1nc(C(F)(F)F)c2c(=O)[nH]ncc21 (single isomer, unassigned) [Compound 418]",≤ 0.1 µM
13,"CC(COCCC(=O)N1CCN(c2cc(F)c(F)cn2)CC1)n1nc(C(F)(F)F)c2c(=O)[nH]ncc21 (single isomer, unassigned) [Compound 419]",≤ 0.1 µM
14,"[2H]C([2H])(OCCC(=O)N1CCN(c2ncc(C#N)cn2)CC1)C(C)n1nc(C(F)(F)F)c2c(=O)[nH]ncc21 (single isomer, unassigned) [Compound 420, 2-(4-(3-(2-(4-oxo-3-(trifluoromethyl)-4,5-dihydro-1H-pyrazolo[3,4-d]pyridazin-1-yl)propoxy-1,1-d2)propanoyl)piperazin-1-yl)pyrimidine-5-carbonitrile]",≤ 0.1 µM
15,"[2H]C([2H])(OCCC(=O)N1CCN(c2ncc(C#N)cn2)CC1)C(C)n1nc(C(F)(F)F)c2c(=O)[nH]ncc21 (single isomer, unassigned) [Compound 421, 2-(4-(3-(2-(4-oxo-3-(trifluoromethyl)-4,5-dihydro-1H-pyrazolo[3,4-d]pyridazin-1-yl)propoxy-1,1-d2)propanoyl)piperazin-1-yl)pyrimidine-5-carbonitrile]",≤ 0.1 µM
16,"[2H]C([2H])(OCCC(=O)N1CCN(c2ncc(C(F)(F)F)cn2)CC1)C(C)n1nc(C(F)(F)F)c2c(=O)[nH]ncc21 (single isomer, unassigned) [Compound 423]",≤ 0.1 µM
17,"O=C(CCOCC(c1cccc2c(=O)[nH]ncc12)C(F)(F)F)N1CCN(c2ncc(C(F)(F)F)cn2)CC1 (single isomer, unassigned) [Compound 427]",0.1 to 1 µM
18,"CC(COCCC(=O)N1CCN(c2cc(C(F)(F)F)on2)CC1)n1nc(C(F)(F)F)c2c(=O)[nH]ncc21 (single isomer, unassigned) [Compound 429]",≤ 0.1 µM

row,Compound,IC50
1,"CC(COCCC(=O)N1CCN(c2cc(C(F)(F)F)on2)CC1)n1nc(C(F)(F)F)c2c(=O)[nH]ncc21 (single isomer, unassigned) [Compound 430]",0.1 to 1 µM
2,"CC(COCCC(=O)N1CCN(c2ccc(C#N)cn2)CC1)n1cc(C(F)(F)F)c2c(=O)[nH]ncc21 (single isomer, unassigned) [Compound 431]",≤ 0.1 µM
3,"CC(COCCC(=O)N1CCN(c2ccc(C#N)cn2)CC1)n1cc(C(F)(F)F)c2c(=O)[nH]ncc21 (single isomer, unassigned) [Compound 432]",≤ 0.1 µM
4,"CC(COCCC(=O)N1CCN(c2ncc(C(F)(F)F)cn2)CC1)n1nc(C(F)F)c2c(=O)[nH]ncc21 (single isomer, unassigned) [Compound 436]",≤ 0.1 µM
5,"CC(COCCC(=O)N1CCN(c2ccc(C#N)cn2)CC1)n1nc(C(F)F)c2c(=O)[nH]ncc21 (single isomer, unassigned) [Compound 437]",≤ 0.1 µM
6,"CC(COCCC(=O)N1CCN(c2ncc(C#N)cn2)CC1)n1cc(C(F)F)c2c(=O)[nH]ncc21 (single isomer, unassigned) [Compound 439]",≤ 0.1 µM
7,"CC(COCCC(=O)N1CCN(c2cc(Cl)c(F)cn2)CC1)n1nc(C(F)(F)F)c2c(=O)[nH]ncc21 (single isomer, unassigned) [Compound 444]",≤ 0.1 µM
8,"CC(COCCC(=O)N1CCN(c2cc(Cl)c(F)cn2)CC1)n1nc(C(F)(F)F)c2c(=O)[nH]ncc21 (single isomer, unassigned) [Compound 445]",≤ 0.1 µM
9,"CC(COCCC(=O)N1CCN(c2ccc(C#N)cn2)CC1)n1cc(C(F)F)c2c(=O)[nH]ncc21 (single isomer, unassigned) [Compound 448]",≤ 0.1 µM
10,"CC(CCOCC(=O)N1CCN(c2ncc(C(F)(F)F)cn2)CC1)n1cc(C(F)(F)F)c2c(=O)[nH]ncc21 (single isomer, unassigned) [Compound 455]",≤ 0.1 µM
11,"CC(CCOCC(=O)N1CCN(c2ncc(Cl)cn2)CC1)n1cc(C(F)(F)F)c2c(=O)[nH]ncc21 (single isomer, unassigned) [Compound 456]",≤ 0.1 µM
12,"CC(CCOCC(=O)N1CCN(c2ncc(Cl)cn2)CC1)n1cc(C(F)(F)F)c2c(=O)[nH]ncc21 (single isomer, unassigned) [Compound 457]",≤ 0.1 µM
13,"CC(COCC(=O)NC1CCN(c2ncc(C(F)(F)F)cn2)CC1)n1cc(C(F)(F)F)c2c(=O)[nH]ncc21 (single isomer, unassigned) [Compound 459]",≤ 0.1 µM
14,"CC(COCC(=O)N(C)C1CCN(c2ncc(C(F)(F)F)cn2)CC1)n1nc(C(F)(F)F)c2c(=O)[nH]ncc21 (single isomer, unassigned) [Compound 460, N-methyl-2-(2-(4-oxo-3-(trifluoromethyl)-4,5-dihydro-1H-pyrazolo[3,4-d]pyridazin-1-yl)propoxy)-N-(1-(5-(trifluoromethyl)pyrimidin-2-yl)piperidin-4-yl) acetamide]",≤ 0.1 µM
15,"CC(COCC(=O)N(C)C1CCN(c2ncc(C(F)(F)F)cn2)CC1)n1nc(C(F)(F)F)c2c(=O)[nH]ncc21 (single isomer, unassigned) [Compound 461, N-methyl-2-(2-(4-oxo-3-(trifluoromethyl)-4,5-dihydro-1H-pyrazolo[3,4-d]pyridazin-1-yl)propoxy)-N-(1-(5-(trifluoromethyl)pyrimidin-2-yl)piperidin-4-yl) acetamide]",≤ 0.1 µM
16,"CC(COCC(=O)N(C)C1CCN(c2ncc(C(F)(F)F)cn2)CC1)n1cc(C(F)(F)F)c2c(=O)[nH]ncc21 (single isomer, unassigned) [Compound 462]",≤ 0.1 µM
17,"CC(COCCC(=O)N1CCN(c2ncc(C#N)cn2)CC1)n1cc(C(F)(F)F)c2c(=O)[nH]ncc21 (single isomer, unassigned) [Compound 464]",≤ 0.1 µM
18,"CC(CCOCC(=O)N1CCN(c2ccc(C#N)cn2)CC1)n1nc(C(F)(F)F)c2c(=O)[nH]ncc21 (single isomer, unassigned) [Compound 466]",≤ 0.1 µM
